biological target: T1, Axl (Homo sapiens, UniProt P30530); assay: HTRF KinEASE-TK biochemical potency, AXL; set-up: purchased Invitrogen; settings: 5 nM AXL, 700 μM ATP
T1 sequence (P30530 26-894): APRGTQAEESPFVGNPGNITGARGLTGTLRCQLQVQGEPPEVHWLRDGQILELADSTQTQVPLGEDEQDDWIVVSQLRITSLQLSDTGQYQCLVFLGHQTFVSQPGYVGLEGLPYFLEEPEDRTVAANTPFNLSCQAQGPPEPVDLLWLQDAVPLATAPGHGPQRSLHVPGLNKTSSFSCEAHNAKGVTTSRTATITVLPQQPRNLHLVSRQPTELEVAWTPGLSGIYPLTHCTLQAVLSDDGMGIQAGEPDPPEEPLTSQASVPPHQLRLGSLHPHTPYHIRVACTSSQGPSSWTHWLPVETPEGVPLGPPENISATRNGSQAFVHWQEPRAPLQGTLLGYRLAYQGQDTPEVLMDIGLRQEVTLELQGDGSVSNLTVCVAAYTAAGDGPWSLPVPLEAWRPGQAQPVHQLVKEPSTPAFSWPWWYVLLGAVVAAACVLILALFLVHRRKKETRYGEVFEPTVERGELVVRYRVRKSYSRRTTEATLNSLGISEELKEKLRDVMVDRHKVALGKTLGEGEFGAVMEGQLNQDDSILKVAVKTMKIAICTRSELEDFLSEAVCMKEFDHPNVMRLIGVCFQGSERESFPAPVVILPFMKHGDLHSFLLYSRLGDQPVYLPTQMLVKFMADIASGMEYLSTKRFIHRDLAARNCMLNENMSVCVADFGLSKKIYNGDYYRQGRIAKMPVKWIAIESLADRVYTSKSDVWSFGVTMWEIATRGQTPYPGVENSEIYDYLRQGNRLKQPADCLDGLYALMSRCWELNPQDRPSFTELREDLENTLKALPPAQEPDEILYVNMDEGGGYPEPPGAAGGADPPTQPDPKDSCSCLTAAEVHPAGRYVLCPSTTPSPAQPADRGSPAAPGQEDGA
Method: Purified recombinant human AXL, TYRO3 and MER proteins were purchased from Invitrogen™. 10 nM AXL, 2 nM TYRO3 or MER were incubated with varying concentrations of compounds in 50 mM HEPES, pH 7.4, 10 mM MgCl2, 0.01% BSA, 1 mM DTT and 2% DMSO in a total volume of 20 μl in a 384-well microplate (Corning™ #3640) at RT for 1 h. The AXL, TYRO3 and MER enzymatic reaction was initiated by transferring 10 μl of enzyme and compound mixture into 10 μl of 1.6 μM TK Substrate-biotin (HTRF® KinEASE-TK kit, Cisbio) and 1400 μM ATP pre-incubated in 50 mM HEPES, pH 7.4, 10 mM MgCl2, 0.01% BSA, 1 mM DTT in a 384-well microplate (Corning™ #3640) at RT, giving the final reaction conditions: 5 nM AXL, 1 nM TYRO3 or MER, 800 nM TK Substrate-biotin and 700 μM ATP in 50 mM HEPES, pH 7.4, 10 mM MgCl2, 0.01% BSA, 1 mM DTT and 1% DMSO with varying concentrations of compounds. Following 2 h incubation at RT, the AXL, TYRO3 and MER enzymatic reaction was stopped by transfer of 10 μl of reaction into 10 μl of detection mix (400 nM Streptavidin-XL665, 200-fold dilution TK Antibody-Cryptate and detection buffer, HTRF® KinEASE-TK kit, Cisbio) in a white 384-well microplate (Perkin Elmer, OptiPlate 384). After 1 h incubation at RT, the plate was put into a plate reader (Evision) to read at 665/620 nm (acceptor/donor) for HTRF. The value of the DMSO blank (MIN inhibition=100% activity) was used as a negative control. The positive control was established by adding 5 μl of enzyme and DMSO mixture into 10 μl of detection mix followed by addition of 5 μl of TK Substrate-biotin and ATP mixture (MAX inhibition=0% activity). To calculate the percent activity, Equation 1 was used. Ratio665/620 is the value at a given compound concentration: […]

| IC50 [µM] | Structure (SMILES) |
| --- | --- |
| < 0.1 | O=C1NCCOc2cc(-c3n[nH]c4ncc(-c5ccc6c(c5)CCC(N5CCCC5)CC6)cc34)ccc21 (racemic) [Example 1, 8-{5-[7-(Pyrrolidin-1-yl)-6,7,8,9-tetrahydro-5H-benzo[7]annulen-2-yl]-1H-pyrazolo[3,4-b]pyridin-3-yl}-2,3,4,5-tetrahydro-1,4-benzoxazepin-5-one] |
| < 0.1 | O=C1NCCOc2cc(-c3n[nH]c4ncc(-c5ccc6c(c5)CC[C@H](N5CCCC5)CC6)cc34)ccc21 (single isomer, unassigned) [Example 56] |
| < 0.1 | O=C1NCCOc2cc(-c3n[nH]c4ncc(-c5ccc6c(c5)CC[C@@H](N5CCCC5)CC6)cc34)ccc21 (single isomer, unassigned) [Example 57] |
| < 0.1 | O=C1NCCOc2cc(-c3n[nH]c4ncc(-c5ccc6c(c5)CCC(N5CCCC5)C6)cc34)ccc21 (stereo not drawn) [Example 2, 8-{5-[6-(Pyrrolidin-1-yl)-5,6,7,8-tetrahydronaphthalen-2-yl]-1H-pyrazolo[3,4-b]pyridin-3-yl}-2,3,4,5-tetrahydro-1,4-benzoxazepin-5-one] |
| < 0.1 | O=C1NCCOc2cc(-c3n[nH]c4ncc(-c5ccc6c(c5)CC(N5CCCC5)CC6)cc34)ccc21 (stereo not drawn) [Example 3, 8-{5-[7-(Pyrrolidin-1-yl)-5,6,7,8-tetrahydronaphthalen-2-yl]-1H-pyrazolo[3,4-b]pyridin-3-yl}-2,3,4,5-tetrahydro-1,4-benzoxazepin-5-one] |
| < 0.1 | O=C1NCCOc2cc(-c3n[nH]c4ncc(-c5ccc6c(c5)CCC(N[C@H]5CCOC5)C6)cc34)ccc21 (stereo partly drawn) [Example 4, 8-[5-(6-{[(3S)—Oxolan-3-yl]amino}-5,6,7,8-tetrahydronaphthalen-2-yl)-1H-pyrazolo[3,4-b]pyridin-3-yl]-2,3,4,5-tetrahydro-1,4-benzoxazepin-5-one] |
| < 0.1 | O=C1NCCOc2cc(-c3n[nH]c4ncc(-c5ccc6c(c5)CCC(N[C@@H]5CCOC5)C6)cc34)ccc21 (stereo partly drawn) [Example 5, 8-[5-(6-{[(3R)—Oxolan-3-yl]amino}-5,6,7,8-tetrahydronaphthalen-2-yl)-1H-pyrazolo[3,4-b]pyridin-3-yl]-2,3,4,5-tetrahydro-1,4-benzoxazepin-5-one] |
| < 0.1 | C[C@@H]1CCCN1C1CCc2ccc(-c3cnc4[nH]nc(-c5cc(F)c6c(c5)OCCNC6=O)c4c3)cc2CC1 (stereo partly drawn) [Example 6, 6-Fluoro-8-(5-{7-[(2R)-2-methylpyrrolidin-1-yl]-6,7,8,9-tetrahydro-5H-benzo[7]annulen-2-yl}-1H-pyrazolo[3,4-b]pyridin-3-yl)-2,3,4,5-tetrahydro-1,4-benzoxazepin-5-one] |
| < 0.1 | O=C1NCCOc2cc(-c3n[nH]c4ncc(-c5ccc6c(c5)CCN(C5CCCC5)CC6)cc34)ccc21 [Example 7, 8-[5-(3-Cyclopentyl-2,3,4,5-tetrahydro-1H-3-benzazepin-7-yl)-1H-pyrazolo[3,4-b]pyridin-3-yl]-2,3,4,5-tetrahydro-1,4-benzoxazepin-5-one] |
| < 0.1 | O=C1NCCOc2cc(-c3n[nH]c4ncc(-c5ccc6c(c5)CCN(C5CCCC5)C6)cc34)ccc21 [Example 9, 8-(5-(2-Cyclopentyl-1,2,3,4-tetrahydroisoquinolin-6-yl)-1H-pyrazolo[3,4-b]pyridin-3-yl)-3,4-dihydrobenzo[f][1,4]oxazepin-5(2H)-one] |
| < 0.1 | O=C1NCCOc2cc(-c3n[nH]c4ncc(-c5ccc6c(c5)CN(C5CCCC5)CC6)cc34)ccc21 [Example 10, 8-(5-(2-Cyclopentyl-1,2,3,4-tetrahydroisoquinolin-7-yl)-1H-pyrazolo[3,4-b]pyridin-3-yl)-3,4-dihydrobenzo[f][1,4]oxazepin-5(2H)-one] |
| < 0.1 | O=C1NCCOc2cc(-c3n[nH]c4ncc(-c5ccc6c(c5)CCN(C5COC5)CC6)cc34)ccc21 [Example 11, 8-(5-(3-(Oxetan-3-yl)-2,3,4,5-tetrahydro-1H-benzo[d]azepin-7-yl)-1H-pyrazolo[3,4-b]pyridin-3-yl)-3,4-dihydrobenzo[f][1,4]oxazepin-5(2H)-one] |
| < 0.1 | O=C1NCCOc2cc(-c3n[nH]c4ncc(-c5ccc6c(c5)CCN(C5COC5)C6)cc34)ccc21 [Example 12, 8-(5-(2-(Oxetan-3-yl)-1,2,3,4-tetrahydroisoquinolin-6-yl)-1H-pyrazolo[3,4-b]pyridin-3-yl)-3,4-dihydrobenzo[f][1,4]oxazepin-5(2H)-one] |
| < 0.1 | COCCN1CCc2cc(-c3cnc4[nH]nc(-c5ccc6c(c5)OCCNC6=O)c4c3)ccc2C1 [Example 13, 8-(5-(2-(2-Methoxyethyl)-1,2,3,4-tetrahydroisoquinolin-6-yl)-1H-pyrazolo[3,4-b]pyridin-3-yl)-3,4-dihydrobenzo[f][1,4]oxazepin-5(2H)-one] |
| < 0.1 | COCCN1CCc2ccc(-c3cnc4[nH]nc(-c5ccc6c(c5)OCCNC6=O)c4c3)cc2CC1 [Example 15, 8-(5-(3-(2-Methoxyethyl)-2,3,4,5-tetrahydro-1H-benzo[d]azepin-7-yl)-1H-pyrazolo[3,4-b]pyridin-3-yl)-3,4-dihydrobenzo[f][1,4]oxazepin-5(2H)-one] |
| < 0.1 | CC(C)C(=O)N1CCc2ccc(-c3cnc4[nH]nc(-c5ccc6c(c5)OCCNC6=O)c4c3)cc2CC1 [Example 16, 8-{5-[3-(2-Methylpropanoyl)-2,3,4,5-tetrahydro-1H-3-benzazepin-7-yl]-1H-pyrazolo[3,4-b]pyridin-3-yl}-2,3,4,5-tetrahydro-1,4-benzoxazepin-5-one] |
| < 0.1 | O=C1NCCOc2cc(-c3n[nH]c4ncc(-c5ccc6c(c5)CCN(C(=O)C5CC5)CC6)cc34)ccc21 [Example 17, 8-[5-(3-Cyclopropanecarbonyl-2,3,4,5-tetrahydro-1H-3-benzazepin-7-yl)-1H-pyrazolo[3,4-b]pyridin-3-yl]-2,3,4,5-tetrahydro-1,4-benzoxazepin-5-one] |
| < 0.1 | CC(C)(O)C(=O)N1CCc2ccc(-c3cnc4[nH]nc(-c5ccc6c(c5)OCCNC6=O)c4c3)cc2CC1 [Example 19, 8-(5-(3-(2-Hydroxy-2-methylpropanoyl)-2,3,4,5-tetrahydro-1H-benzo[d]azepin-7-yl)-1H-pyrazolo[3,4-b]pyridin-3-yl)-3,4-dihydrobenzo[f][1,4]oxazepin-5(2H)-one] |
| < 0.1 | O=C1NCCOc2cc(-c3n[nH]c4ncc(-c5ccc6c(c5)CCN(C5CC5)CC6)cc34)ccc21 [Example 20, 8-(5-(3-Cyclopropyl-2,3,4,5-tetrahydro-1H-benzo[d]azepin-7-yl)-1H-pyrazolo[3,4-b]pyridin-3-yl)-3,4-dihydrobenzo[f][1,4]oxazepin-5(2H)-one] |
| < 0.1 | O=C1NCCOc2cc(-c3n[nH]c4ncc(-c5ccc6c(c5)CCN(C5CC5)C6)cc34)ccc21 [Example 21, 8-(5-(2-Cyclopropyl-1,2,3,4-tetrahydroisoquinolin-6-yl)-1H-pyrazolo[3,4-b]pyridin-3-yl)-3,4-dihydrobenzo[f][1,4]oxazepin-5(2H)-one] |
| < 0.1 | CC1(N2CCCC2)CCc2ccc(-c3cnc4[nH]nc(-c5ccc6c(c5)OCCNC6=O)c4c3)cc2CC1 (stereo not drawn) [Example 22, 8-{5-[7-Methyl-7-(pyrrolidin-1-yl)-6,7,8,9-tetrahydro-5H-benzo[7]annulen-2-yl]-1H-pyrazolo[3,4-b]pyridin-3-yl}-2,3,4,5-tetrahydro-1,4-benzoxazepin-5-one] |
